Test results: US20230303495A9, “PYRIDINE OXYNITRIDE, PREPARATION METHOD THEREFOR AND USE THEREOF” (Orion Corporation, priority 2019, published 2023)

Key:
NaV1.8 = molecular target: T1, NaV1.8 (Homo sapiens, UniProt Q9Y5Y9); assay: Whole-cell patch clamp blocking activity against NaV1.8 channel current; type: cell-based; details: for IC50: CHO cell line stably expressing Nav1.8 (SCN10A: NM_006514), patch clamp; for Blocking rate (%) @100 nM: against NaV1.8 at 100 nM, CHO cell line stably expressing Nav1.8, patch clamp
T1 construct: expressed in transfected cells
T1 sequence (Q9Y5Y9 whole entry): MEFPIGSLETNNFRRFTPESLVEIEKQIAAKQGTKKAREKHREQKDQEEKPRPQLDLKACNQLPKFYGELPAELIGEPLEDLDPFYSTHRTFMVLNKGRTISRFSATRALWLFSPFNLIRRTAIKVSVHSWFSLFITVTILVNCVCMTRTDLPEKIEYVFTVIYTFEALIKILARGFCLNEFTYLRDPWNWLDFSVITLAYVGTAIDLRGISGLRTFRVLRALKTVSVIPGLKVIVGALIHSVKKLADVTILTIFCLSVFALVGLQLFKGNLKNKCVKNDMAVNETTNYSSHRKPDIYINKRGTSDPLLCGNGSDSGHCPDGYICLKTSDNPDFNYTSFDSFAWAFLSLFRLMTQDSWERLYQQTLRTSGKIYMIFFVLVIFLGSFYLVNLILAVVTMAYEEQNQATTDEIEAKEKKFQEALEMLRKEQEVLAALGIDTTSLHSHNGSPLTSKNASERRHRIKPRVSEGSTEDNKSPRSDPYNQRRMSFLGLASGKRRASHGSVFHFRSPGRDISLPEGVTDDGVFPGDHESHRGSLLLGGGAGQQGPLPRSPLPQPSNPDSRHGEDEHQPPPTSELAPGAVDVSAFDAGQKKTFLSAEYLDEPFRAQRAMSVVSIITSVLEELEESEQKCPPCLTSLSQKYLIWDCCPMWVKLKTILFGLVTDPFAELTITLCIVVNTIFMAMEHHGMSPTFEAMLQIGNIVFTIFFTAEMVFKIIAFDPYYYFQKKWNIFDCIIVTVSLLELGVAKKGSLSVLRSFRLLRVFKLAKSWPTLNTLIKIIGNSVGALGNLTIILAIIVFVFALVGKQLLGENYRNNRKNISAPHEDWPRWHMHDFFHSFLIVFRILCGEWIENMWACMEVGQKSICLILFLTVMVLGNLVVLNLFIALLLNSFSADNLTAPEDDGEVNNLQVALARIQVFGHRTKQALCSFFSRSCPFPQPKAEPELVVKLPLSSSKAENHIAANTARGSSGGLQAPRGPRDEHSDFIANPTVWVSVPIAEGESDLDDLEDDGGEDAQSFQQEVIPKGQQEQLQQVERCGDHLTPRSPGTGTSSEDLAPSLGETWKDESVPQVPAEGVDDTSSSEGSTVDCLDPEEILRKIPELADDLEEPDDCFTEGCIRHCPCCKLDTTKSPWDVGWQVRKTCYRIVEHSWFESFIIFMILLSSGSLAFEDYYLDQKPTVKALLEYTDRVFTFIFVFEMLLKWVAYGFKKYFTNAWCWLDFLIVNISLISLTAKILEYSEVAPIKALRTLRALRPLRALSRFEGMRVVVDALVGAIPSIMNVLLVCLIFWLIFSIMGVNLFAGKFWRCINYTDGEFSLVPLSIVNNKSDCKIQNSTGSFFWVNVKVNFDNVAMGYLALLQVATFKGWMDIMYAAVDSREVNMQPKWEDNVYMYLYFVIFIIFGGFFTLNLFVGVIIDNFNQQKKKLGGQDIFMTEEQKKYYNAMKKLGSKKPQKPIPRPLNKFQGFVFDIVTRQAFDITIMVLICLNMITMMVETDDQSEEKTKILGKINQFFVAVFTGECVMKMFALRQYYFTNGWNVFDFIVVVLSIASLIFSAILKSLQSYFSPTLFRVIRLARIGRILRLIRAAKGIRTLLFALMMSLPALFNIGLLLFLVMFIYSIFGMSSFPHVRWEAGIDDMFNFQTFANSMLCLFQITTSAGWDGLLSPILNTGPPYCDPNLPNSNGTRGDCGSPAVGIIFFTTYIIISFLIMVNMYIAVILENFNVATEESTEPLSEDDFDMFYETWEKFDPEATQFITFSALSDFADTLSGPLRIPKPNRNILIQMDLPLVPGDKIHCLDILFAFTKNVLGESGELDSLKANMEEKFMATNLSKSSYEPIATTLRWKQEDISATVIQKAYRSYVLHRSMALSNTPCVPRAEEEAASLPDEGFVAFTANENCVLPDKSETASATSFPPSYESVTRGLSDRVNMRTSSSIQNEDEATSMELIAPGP
Experimental: 1. Test method: patch clamp technique was used to detect the influence of compounds on voltage-gated sodium channel (NaV) 1.1-1.8 subtype current
1) The specific information of the CHO cell line stably expressing the Nav1.8 channel was as follows: SCN10A: NM_006514
2) Cells were cultured in HAM'S/F-12 medium containing 10% fetal bovine serum and 10 μg/mL Blasticidin, 200 μg/mL Hygromycin B and 100 μg/mL Zeocin, culture temperature was 37° C. and the concentration of CO2 was 5%.
5) Patch clamp detection, before the experiment, the cells were separated with 0.25%—trypsin EDTA, inoculated into a 24 well plate with a density of 8*10^3 cells per well (final volume: 500 μL), tetracycline was added thereto, and experimental test was performed on the next day.
1) Extracellular fluid: 140 mM NaCl, 3.5 mM KCl, 2 mM CaCl2, 10 mM HEPES, 1.25 mM NaH2PO4, 1 mM MgCl2, 10 mM Glucose, pH=7.4 (NaOH).
2) Intracellular fluid: 50 mM CsCl, 10 mM NaCl, 10 mM HEPES, 20 mM EGTA, 60 mM CsF, pH=7.2 (CsOH).
The voltage stimulation scheme of whole-cell patch clamp recording of Nav channel current was as follows: first the membrane potential of the cell was clamped at −130 mV, and then the voltage was stepped to −40 mV or −20 mV at 10 mv step intervals for 8 s. The clamping voltage was maintained at −120 mV, and data was collected repeatedly every 20 seconds. The peak amplitude of its inward current was measured to determine its half-inactivation voltage.
The cell clamping potential was set at −120 mV. The resting and half-inactivation inhibition of sodium current was measured using double pulse mode. The double pulse mode was completed by two 0 mV depolarization test pulses (TP1 and TP2) lasting 50 ms. The conditional voltage between the two depolarization pulses was set near the half-inactivation voltage (lasting 8 s). […] The data acquisition was repeated at an interval of 20 s and the current peak was measured at the two test pulses.
When the current of the Nav channel recorded by the whole cell was stable, the drug was administered, after each drug concentration was applied for 5 minutes (or the current was stable), the next concentration would be tested, and multiple concentrations would be tested for each test compound. The cover glass covered with cells was placed in the recording bath of an inverted microscope, the test compound and the external liquid without compound flowed through the recording chambers in turns from low concentration to high concentration by gravity perfusion, so as to act on the cells, in the recording, the liquid exchange was carried out by vacuum pump. The current detected in each cell in the compound-free external fluid served as its own control group. Multiple cells were detected independently and repeatedly. All electrophysiological experiments were performed at room temperature.
First, the current after the action of each drug concentration and the blank control current were normalized, and then the blocking rate corresponding to each drug concentration was calculated. The mean and standard error were calculated for each concentration, and all the above values were calculated by Microsoft Excel 2013. In addition, the half-inhibitory concentration of each compound was calculated by IGOR software with the following equation: retardation rate=1/[1+(IC50/c)^h].
The dose-dependent effect was nonlinearly fitted with the above equation, wherein, c refers to the drug concentration, IC50 was the half inhibitory concentration, and h refers to the Hill coefficient. The curve fitting and the calculation of IC50 were completed by IGOR software (software version: 6.0.1.0).

[1] = In vivo pharmacokinetics of rat, single intravenous injection or oral administration by gavage; parameters: species or system Male Sprague Dawley rats; details: male, Sprague-Dawley, plasma; for Vd: read-out: VZ; for bioavailability: intragastric (gavage) 10 mg/kg vs intravenous 1 mg/kg
Experimental: In this experimental embodiment, the in vivo pharmacokinetics of rat was evaluated by a single intravenous injection or oral administration by gavage.
Experimental methods and conditions: Male Sprague Dawley rats, all animals were fasted overnight, and the test compound was given 1 mg/Kg (intravenous injection, solvent […]) and 10 mg/Kg (administrated by gavage) respectively, 5, 15, 30 min, 1, 2, 4, 6, 8 and 24 hr after administration, blood was collected through the submandibular vein, about 0.20 mL of each sample was collected, heparin sodium was used for anticoagulation, the samples were placed on ice after the collection, then centrifuged within 1 hour to separate the plasma for testing. The blood drug concentration in plasma was detected by liquid-phase tandem mass spectrometry (LC/MS/MS), and the pharmacokinetic parameters were calculated by the measured concentration.

[2] = intravenous administration 1 mg/kg
[3] = po, intragastric (gavage) 10 mg/kg

Row | SMILES | IC50 (NaV1.8) [nM] | AUC(0-inf) [1, 2] [µg·h/mL] | clearance [1, 2] [mL/min/kg] | half-life [1, 2] [h] | Vd [1, 2] [L/kg] | AUC(0-inf) [1, 3] [µg·h/mL] | Cmax [1, 3] [ng/mL] | half-life [1, 3] [h] | bioavailability ([1]; po) [%] | Blocking rate (%) @100 nM (NaV1.8) [%]
1 | O=C(Nc1ccc[n+]([O-])c1)c1cc(Cl)c(Cl)cc1Oc1ccc(OC(F)(F)F)cc1 [Embodiment A11] | 6.2 | 1.46 | 11.4 | 0.7 | 0.699 | 10.6 | 1330 | 2.51 | 72.6 | –
2 | Cc1cc(F)ccc1Oc1cc(C(F)(F)F)c(Cl)cc1C(=O)Nc1ccc[n+]([O-])c1 [Embodiment A103] | – | 2.76 | 6.15 | 2.28 | 1.19 | 14 | 1710 | 2.47 | 50.7 | 92.47
3 | O=C(Nc1ccc[n+]([O-])c1)c1cc(Cl)c(C(F)(F)F)cc1Oc1ccc(OC(F)(F)F)cc1 [Embodiment A69] | 2 | 56.7 | 0.3 | 12.3 | 0.312 | 399 | 17100 | 12.2 | 70.4 | –
4 | O=C(Nc1ccc[n+]([O-])c1)c1c(Oc2ccc(OC(F)(F)F)cc2)cc(C(F)(F)F)c(Cl)c1F [Embodiment A68] | 0.27 | 33.3 | 0.5 | 5.24 | 0.228 | 139 | 9700 | 5.72 | 41.8 | 99.15
5 | O=C(Nc1cc[n+]([O-])nc1)c1c(Oc2ccc(OC(F)(F)F)c(F)c2)ccc(C(F)(F)F)c1F [Embodiment A56] | 3.7 | 9.6 | 1.74 | 13.1 | 1.97 | 117 | 3000 | 27.9 | 68.2 | –
6 | O=C(Nc1cc[n+](O)nc1)c1c(Oc2ccc(OC(F)(F)F)cc2)ccc(C(F)(F)F)c1F [Embodiment A46] | 3.1 | 15.6 | 1.08 | 20.1 | 1.85 | 2930 | 2060 | 915 | 46.8 | –
7 | O=C(Nc1ccc[n+]([O-])c1)c1c(Oc2ccc(F)cc2C2CC2)cc(C(F)(F)F)c(Cl)c1F [Embodiment A111] | – | – | – | – | – | – | – | – | – | 99.42
8 | O=C(Nc1ccc[n+]([O-])c1)c1c(Oc2ccc(OCC(F)(F)F)cc2)cc(Cl)c(Cl)c1F [Embodiment A101] | – | – | – | – | – | – | – | – | – | 98.47
9 | O=C(Nc1ccc[n+]([O-])c1)c1cc(Cl)c(C(F)(F)F)cc1Oc1ccc(F)cc1C1CC1 [Embodiment A106] | 3 | – | – | – | – | – | – | – | – | –
10 | O=C(Nc1cc[n+]([O-])nc1)c1c(Oc2ccc(OC(F)(F)F)cc2)ccc(I)c1F [Embodiment A23] | – | – | – | – | – | – | – | – | – | 97.04
11 | O=C(Nc1cc[n+]([O-])nc1)c1c(Oc2ccc(OC(F)F)cc2)ccc(C(F)(F)F)c1F [Embodiment A72] | – | – | – | – | – | – | – | – | – | 85.63
12 | Cc1cc(OC(F)(F)F)ccc1Oc1ccc(C(F)(F)F)c(F)c1C(=O)Nc1ccc[n+](O)c1 [Embodiment A51] | 2.7 | – | – | – | – | – | – | – | – | –
13 | COc1c(Cl)c(C(F)(F)F)cc(Oc2ccc(F)cc2C)c1C(=O)Nc1ccc[n+]([O-])c1 [Embodiment A105] | – | – | – | – | – | – | – | – | – | 98.42
14 | O=C(Nc1ccc[n+]([O-])c1)c1c(Oc2ccc(OC(F)(F)F)c(F)c2)cc(C(F)(F)F)c(Cl)c1F [Embodiment A84] | – | 18.8 | 0.91 | 4.53 | 0.355 | 67.2 | 4920 | 5.75 | 35.7 | 99.14
15 | O=C(Nc1ccc[n+]([O-])c1)c1c(Oc2ccc(F)cc2Cl)ccc(C(F)(F)F)c1F [Embodiment A50] | – | – | – | – | – | – | – | – | – | 79.66
16 | O=C(Nc1ccc[n+]([O-])c1)c1c(Oc2ccc(OC(F)(F)F)cc2)cnc(C(F)(F)F)c1F [Embodiment A59] | – | – | – | – | – | – | – | – | – | 87.57
17 | Cc1cc(F)ccc1Oc1cc(S(F)(F)(F)(F)F)ccc1C(=O)Nc1ccc[n+]([O-])c1 [Embodiment A8] | – | – | – | – | – | – | – | – | – | 81.85
18 | O=C(Nc1ccc[n+]([O-])c1)c1c(Cl)cc(C(F)(F)F)cc1Oc1ccc(OC(F)(F)F)cc1 [Embodiment A29] | – | – | – | – | – | – | – | – | – | 87.63
19 | O=C(Nc1ccc[n+](O)c1)c1c(Oc2ccc(OC(F)(F)F)cc2)ccc(Br)c1F [Embodiment A74] | 3.5 | – | – | – | – | – | – | – | – | –
